{"source": "patent US6177426A", "about": "“Morpholino-N-ethyl ester prodrugs of indole sPLA2 inhibitors” (Eli Lilly and Company, priority 2000, dated 2001)", "key": {"[1]": {"test": "Rat plasma pharmacokinetics study, oral bioavailability", "format": "in vivo, Rat (Fischer 344)", "conditions": "compared to other ester prodrugs", "protocol": "The bioavailability of the compound of the invention, ((3-(2-Amino-1,2-dioxoethyl)-1-((1,1'-biphenyl)-3-ylmethyl)-2-methyl-1H-indol-4-yl)oxy)acetic acid morpholino-N-ethyl ester, was determined using a Rat Study Protocol Plasma\nThe purpose of this assay was to evaluate and compare the oral delivery for selected sPLA2 inhibitors.\nThe amount of sPLA2 inhibitor was corrected for free acid equivalents.\nSuspension of sPLA2 inhibitor in 10% Acacia, prepared just prior to dose administration\nDose: 10 mg/kg (of the parent acid)\nBlood samples (0.8 ml) were obtained at the following times: 0.5, 1, 2, 4, 8 and 24 hours (2 rats/timepoint)\nPlasma was assayed by HPLC to measure concentrations of the different sPLA2 inhibitors (measured as free acids). Cmax (maximal plasma concentrations), and AUC values were determined from the mean plasma concentration-time profiles."}, "[2]": {"target": "recombinant human secreted phospholipase A2", "conditions": "data from U.S. Pat. No. 5,654,326, cited from earlier work"}, "[3]": {"target": "recombinant human secreted phospholipase A2", "conditions": "guinea pig lung tissue; sPLA2 10 ug/ml; data from U.S. Pat. No. 5,654,326; read-out: Tissue test secreted PLA2 Apparent KB; cited from earlier work"}}, "data": [{"molecule": "Cc1c(C(=O)C(N)=O)c2c(OCC(=O)OCCN3CCOCC3)cccc2n1Cc1cccc(-c2ccccc2)c1", "note": "[Compound of formula (I), ((3-(2-amino-1,2-dioxoethyl)-1-((1,1'-biphenyl)-3-ylmethyl)-2-methyl-1H-indol-4-yl)oxy)acetic acid morpholino-N-ethyl ester]", "values": [{"measurement": "oral bioavailability compared to other esters (in words)", "setting": "[1]; listed as morpholino-N-ethyl ester", "value": "unexpectedly more bioavailable than other esters"}]}, {"molecule": "Cc1c(C(=O)C(N)=O)c2c(OCC(=O)OCCN3CCOCC3)cccc2n1Cc1cccc(-c2ccccc2)c1", "note": "[formula (I)]", "values": [{"measurement": "oral bioavailability compared to other esters (in words)", "setting": "[1]", "value": "highly bioavailable upon oral administration compared to other common ester type prodrugs"}]}, {"molecule": "Cc1c(C(=O)C(N)=O)c2c(OCC(=O)O)cccc2n1Cc1cccc(-c2ccccc2)c1", "note": "[formula (II)]", "values": [{"measurement": "IC50", "setting": "[2]; chromogenic assay, 3-4 tests, read-out: Inhibition of human secreted PLA2 IC50 ± mean deviation (3-4 tests)", "value": "4.33 ± 2.31", "unit": "nM"}, {"measurement": "inhibiting sPLA2 (conclusion in words)", "setting": "[2]; conclusion of Assay 1", "value": "highly active in inhibiting sPLA2"}, {"measurement": "Kb", "setting": "[3]", "value": "57 ± 11", "unit": "nM"}]}]}
